Results published in ChEMBL document CHEMBL5131543, “Studying Lipophilicity Trends of Phosphorus Compounds by 31P-NMR Spectroscopy: A Powerful Tool for the Design of P-Containing Drugs” (J Med Chem, 2022).

What was measured:
Format in all cases: physicochemical
[1] = Lipophilicity, logD of compound at pH 1.3 by shake flask method based 31P-NMR analysis; conditions: buffer
[2] = Basicity of hydrogen bond, pKHB of compound by IR spectroscopy
[3] = […]-water partition coefficient, logP of compound by shake flask method based 31P-NMR analysis; conditions: octanol/water
[4] = Lipophilicity, logD of compound at pH 7.4 by shake flask method based 31P-NMR analysis; conditions: buffer
[5] = Octanol-water partition coefficient, logP of compound by shake flask method based 31P-NMR analysis
[6] = Lipophilicity, logD of compound at pH 3 by shake flask method based 31P-NMR analysis; conditions: buffer
[7] = Octanol-water partition coefficient, logP of compound at pH 1.3 by shake flask method based 31P-NMR analysis

## O=P(O)(O)C(O)(c1cc(F)c(F)c(F)c1)P(=O)(O)O
[1]
  logD: -0.69

## O=P(O)(O)C(O)(c1ccc(F)cc1)P(=O)(O)O
[1]
  logD: -1.57

## CP(C)(C)=O
[2]
  pKHB: 3.444
[3]
  logP: -1.6

## COP(=O)(OC)OC [TRIMETHYL PHOSPHATE]
[3]
  logP: -0.4

## CC(C)OC(=O)OCOP(=O)(CO[C@H](C)Cn1cnc2c(N)ncnc21)OCOC(=O)OC(C)C [TENOFOVIR DISOPROXIL]
[1]
  logD: 1.26
[4]
  logD: 1.26

## CCOP(=O)(OCC)Oc1ccc([N+](=O)[O-])cc1 [PARAOXON]
[3]
  logP: 2.11

## CP(C)(C)=S
[2]
  pKHB: 1.533
[3]
  logP: -0.23

## OCCCP(=[Se])(CCCO)CCCO
[3]
  logP: -0.9

## CP(C)(C)=[Se]
[2]
  pKHB: 1.519
[3]
  logP: -0.02

## CCOP(=O)(OCC)Oc1ccccc1 [PHOSPHORIC ACID DIETHYL ESTER PHENYL ESTER]
[3]
  logP: 2.07

## CCOP(=S)(OCC)Oc1ccccc1
[3]
  logP: 3.34

## CCOP(=O)(OCC)OCC [TRIETHYL PHOSPHATE]
[2]
  pKHB: 2.574

## CCOP(=O)(OCC)SCC
[2]
  pKHB: 2.377
[3]
  logP: 1.42

## C[C@@H]1C[C@H]2[C@@H]3CCC4=CC(=O)C=C[C@]4(C)[C@@]3(F)[C@@H](O)C[C@]2(C)[C@@]1(O)C(=O)COP(=O)(O)O [DEXAMETHASONE SODIUM PHOSPHATE]
[1]
  logD: 1.24

## CCOP(=O)(OCC)c1ccccc1
[5]
  logP: 1.1

## O=P(O)(O)C(O)(c1ccccc1F)P(=O)(O)O
[1]
  logD: -2.16
[6]
  logD: -3.25

## OCCCP(=S)(CCCO)CCCO
[3]
  logP: -1.2

## CCCCCCCC(O)(P(=O)(O)O)P(=O)(O)O
[1]
  logD: 0.6

## O=P(CCCO)(CCCO)CCCO
[3]
  logP: -2.49

## CCCCCCCCCC(O)(P(=O)(O)O)P(=O)(O)O
[1]
  logD: 1.72

## CCOP(=S)(OCC)Oc1ccc(OC)cc1
[3]
  logP: 3.37

## CCOP(=S)(OCC)SCC
[3]
  logP: 3.38

## CCCCCCC(O)(P(=O)(O)O)P(=O)(O)O
[1]
  logD: -0.08

## CCOP(=S)(OCC)Oc1ccc([N+](=O)[O-])cc1 [PARATHION]
[3]
  logP: 3.08

## O=P(O)(O)C(O)(c1ccccc1)P(=O)(O)O
[7]
  logP: -1.87

## CCOP(=O)(OCC)Oc1ccc(OC)cc1
[3]
  logP: 2.14

## CCOP(=S)(OCC)c1ccccc1
[5]
  logP: 3.66

## CCNP(=O)(OCC)OCC
[3]
  logP: 0.54
